What is called IC50 is the concentration that gives 50% inhibition. Read a high IC50 as lower potency. Usually melting point stands for the temperature, or range, at which the solid turns liquid.

The results in this text go back to article PMC6327040, “A novel scaffold for EGFR inhibition: Introducing N-(3-(3-phenylureido)quinoxalin-6-yl) acrylamide derivatives” (Scientific Reports, 2019).

In one series the target is EGFRL858R/T790M (Homo sapiens, UniProt P00533, L858R/T790M). The series is described as follows: HTRF KinEASE-TK biochemical assay (TR-FRET), EGFR-L858R/T790M. As to conditions: for inhibitory activity on EGFRL858R/T790M (in words): enzymatic in vitro determination. Background: Time-resolved FRET reads energy transfer from a long-lived donor to a nearby acceptor.
The next series has as its target EGFRwt (Homo sapiens, UniProt P00533). The series is described as follows: HTRF KinEASE-TK biochemical assay (TR-FRET), EGFRwt. The following applies: for inhibitory activity on EGFRwt (in words): enzymatic in vitro determination.
Another series has as its target EGFRL858R (Homo sapiens, UniProt P00533, L858R). Kind of series: HTRF KinEASE-TK biochemical assay (TR-FRET), EGFR-L858R. The following applies: for inhibitory activity on EGFRL858R (in words): enzymatic in vitro determination.
The test system of series [1] is patient-derived tumor cell panel. The series is described as follows: Patient-derived tumor cell panel screening (Oncotest). The following applies: single screening concentration of 10 μM. Format: cell-based. As for the experimental part: Based on this premise, the inhibitory activity of compounds 7a-m towards a patient-derived tumor cell panel[49] was evaluated, using a single screening concentration of 10 μM. […] In fact, it is worth mentioning that, although the data observed in a cellular assay have no direct correlation to EGFR enzymatic tests, this phenomenon is not unusual and is related to the nature of the assays itself. In enzymatic assays there is no influence of membrane permeability issues, while in cell viability assays compounds must penetrate the cell membrane and resist the cellular environment for long enough for the ligand-receptor interaction to occur and to trigger the biological activity.

Sequence of EGFRL858R/T790M (P00533 25-1210 T790M/L858R): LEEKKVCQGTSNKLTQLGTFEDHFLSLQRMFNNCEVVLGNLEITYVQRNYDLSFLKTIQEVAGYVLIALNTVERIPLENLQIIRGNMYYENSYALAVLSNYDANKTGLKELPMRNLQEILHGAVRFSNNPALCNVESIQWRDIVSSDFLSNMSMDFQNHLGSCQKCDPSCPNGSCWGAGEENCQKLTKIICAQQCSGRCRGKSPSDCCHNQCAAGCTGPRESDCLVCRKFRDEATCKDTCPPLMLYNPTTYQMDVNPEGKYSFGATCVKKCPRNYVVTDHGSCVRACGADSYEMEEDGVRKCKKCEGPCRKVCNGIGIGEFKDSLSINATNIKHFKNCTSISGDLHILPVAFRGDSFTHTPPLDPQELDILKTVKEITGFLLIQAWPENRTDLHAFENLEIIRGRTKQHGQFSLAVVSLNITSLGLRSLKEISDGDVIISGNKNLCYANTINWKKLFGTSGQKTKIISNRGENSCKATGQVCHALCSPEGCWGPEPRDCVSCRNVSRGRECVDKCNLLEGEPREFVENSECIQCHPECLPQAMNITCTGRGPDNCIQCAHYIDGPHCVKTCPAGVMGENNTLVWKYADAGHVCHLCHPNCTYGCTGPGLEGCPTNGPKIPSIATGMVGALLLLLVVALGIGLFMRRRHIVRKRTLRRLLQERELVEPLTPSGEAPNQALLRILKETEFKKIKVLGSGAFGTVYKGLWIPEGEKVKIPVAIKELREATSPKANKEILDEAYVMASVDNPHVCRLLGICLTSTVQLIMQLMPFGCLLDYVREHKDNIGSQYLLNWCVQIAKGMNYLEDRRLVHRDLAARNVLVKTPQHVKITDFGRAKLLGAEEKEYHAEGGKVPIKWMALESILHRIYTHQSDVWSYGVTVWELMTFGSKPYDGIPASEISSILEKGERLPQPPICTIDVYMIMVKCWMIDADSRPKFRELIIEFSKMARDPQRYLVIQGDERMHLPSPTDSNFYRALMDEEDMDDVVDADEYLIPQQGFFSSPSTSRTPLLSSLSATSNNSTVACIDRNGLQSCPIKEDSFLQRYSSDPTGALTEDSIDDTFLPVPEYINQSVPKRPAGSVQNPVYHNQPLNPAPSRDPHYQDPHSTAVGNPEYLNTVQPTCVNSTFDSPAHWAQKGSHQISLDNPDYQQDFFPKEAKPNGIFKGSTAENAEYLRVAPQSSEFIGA
Sequence of EGFRwt (P00533 25-1210): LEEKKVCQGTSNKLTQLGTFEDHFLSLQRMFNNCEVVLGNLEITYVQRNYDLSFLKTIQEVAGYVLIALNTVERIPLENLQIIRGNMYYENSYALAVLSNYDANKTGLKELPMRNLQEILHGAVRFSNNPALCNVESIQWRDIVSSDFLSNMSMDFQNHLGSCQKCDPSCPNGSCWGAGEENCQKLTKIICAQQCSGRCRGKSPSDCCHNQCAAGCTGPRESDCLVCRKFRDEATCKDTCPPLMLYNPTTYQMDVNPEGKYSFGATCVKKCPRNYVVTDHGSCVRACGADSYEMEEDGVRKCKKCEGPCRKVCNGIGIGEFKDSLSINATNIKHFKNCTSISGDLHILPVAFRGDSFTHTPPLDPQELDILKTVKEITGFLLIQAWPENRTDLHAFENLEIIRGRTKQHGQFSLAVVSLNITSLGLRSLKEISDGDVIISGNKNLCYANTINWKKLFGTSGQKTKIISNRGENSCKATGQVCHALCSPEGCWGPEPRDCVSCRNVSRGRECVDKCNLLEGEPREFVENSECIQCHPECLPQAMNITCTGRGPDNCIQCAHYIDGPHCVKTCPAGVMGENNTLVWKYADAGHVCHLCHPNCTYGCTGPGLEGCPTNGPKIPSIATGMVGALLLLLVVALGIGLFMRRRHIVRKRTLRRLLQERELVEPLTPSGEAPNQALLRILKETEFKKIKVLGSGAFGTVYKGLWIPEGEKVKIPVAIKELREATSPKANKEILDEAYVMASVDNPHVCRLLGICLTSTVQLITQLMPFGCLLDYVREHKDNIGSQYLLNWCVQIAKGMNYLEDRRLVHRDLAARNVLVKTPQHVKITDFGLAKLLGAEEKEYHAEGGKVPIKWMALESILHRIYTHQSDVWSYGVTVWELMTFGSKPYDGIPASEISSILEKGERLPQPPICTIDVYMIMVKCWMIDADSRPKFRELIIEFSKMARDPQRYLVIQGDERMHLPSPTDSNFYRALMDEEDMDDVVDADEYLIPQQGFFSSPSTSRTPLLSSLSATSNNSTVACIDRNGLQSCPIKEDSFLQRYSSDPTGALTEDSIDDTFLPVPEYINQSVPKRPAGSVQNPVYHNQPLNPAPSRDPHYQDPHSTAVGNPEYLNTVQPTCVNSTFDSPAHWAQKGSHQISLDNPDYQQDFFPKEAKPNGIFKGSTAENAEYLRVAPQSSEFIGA
Sequence of EGFRL858R (P00533 25-1210 L858R): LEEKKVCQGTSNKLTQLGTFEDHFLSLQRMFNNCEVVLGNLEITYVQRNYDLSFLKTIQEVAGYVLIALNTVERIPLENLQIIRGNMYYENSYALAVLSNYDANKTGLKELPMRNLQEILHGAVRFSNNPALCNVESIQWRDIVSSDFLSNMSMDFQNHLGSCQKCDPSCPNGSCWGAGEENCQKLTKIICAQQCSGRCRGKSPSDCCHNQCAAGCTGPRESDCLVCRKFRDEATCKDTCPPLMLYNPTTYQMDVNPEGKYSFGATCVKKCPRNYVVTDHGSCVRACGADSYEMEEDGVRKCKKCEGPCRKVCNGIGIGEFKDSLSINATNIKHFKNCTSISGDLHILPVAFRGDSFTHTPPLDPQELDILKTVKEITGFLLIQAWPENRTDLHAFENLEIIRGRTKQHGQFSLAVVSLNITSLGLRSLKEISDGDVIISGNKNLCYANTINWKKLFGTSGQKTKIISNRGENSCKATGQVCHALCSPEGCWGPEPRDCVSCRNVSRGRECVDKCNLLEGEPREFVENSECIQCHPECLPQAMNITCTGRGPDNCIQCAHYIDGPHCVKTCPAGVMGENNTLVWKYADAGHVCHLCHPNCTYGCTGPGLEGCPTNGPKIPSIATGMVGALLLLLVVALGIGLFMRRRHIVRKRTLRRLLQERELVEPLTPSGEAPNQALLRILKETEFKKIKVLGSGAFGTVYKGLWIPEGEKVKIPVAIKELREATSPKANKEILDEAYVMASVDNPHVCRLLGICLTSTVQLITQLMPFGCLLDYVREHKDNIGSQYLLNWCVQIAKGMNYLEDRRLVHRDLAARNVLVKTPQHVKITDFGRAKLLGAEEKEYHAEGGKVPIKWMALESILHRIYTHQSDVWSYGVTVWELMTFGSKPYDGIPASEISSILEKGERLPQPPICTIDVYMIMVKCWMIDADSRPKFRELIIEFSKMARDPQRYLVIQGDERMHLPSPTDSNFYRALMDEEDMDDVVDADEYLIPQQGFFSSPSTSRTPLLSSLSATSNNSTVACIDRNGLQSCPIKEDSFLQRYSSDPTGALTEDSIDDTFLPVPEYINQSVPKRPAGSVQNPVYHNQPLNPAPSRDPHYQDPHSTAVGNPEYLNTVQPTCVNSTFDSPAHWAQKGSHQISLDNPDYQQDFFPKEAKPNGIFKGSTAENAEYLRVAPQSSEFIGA
Procedure for EGFRL858R/T790M: (§1) An artificial substrate peptide (TK-substrate from Cisbio) was phosphorylated by EGFR. After completion of the reaction (reaction times: 25 min for wild-type, 15 min for L858R, 20 min for T790M/L858R), the reaction was stopped by addition of a buffer containing EDTA as well as, an anti-phosphotyrosine antibody labeled with europium cryptate and streptavidin labeled with the fluorophore XL665. FRET between europium cryptate and XL665 was measured after an additional hour of incubation to quantify the phosphorylation of the substrate peptide. […] Kinase and inhibitor were preincubated for 30 min (EGFR-wt) and 1 h (EGFR-L858R and EGFR-L858R/T790M) before the reaction was started by addition of ATP and substrate peptide. An EnVision multimode plate reader (Perkin Elmer) was used to measure the fluorescence of the samples at 620 nm (Eu-labeled antibody) and 665 nm (XL665 labeled streptavidin) 50 μs after excitation at 320 nm. The quotient of both intensities for reactions made with eight different inhibitor concentrations was then analyzed using the Quattro Software Suite for IC50-determination. Each reaction was performed in duplicate, and at least three independent determinations of each IC50 were made.
Procedure for EGFRwt: as §1

The compound `C/C=C/C(=O)Nc1ccc2ncc(NC(=O)Nc3ccccc3)nc2c1` [Compound 7i, (E)-N-(3-(3-phenylureido)quinoxalin-6-yl)but-2-enamide] displayed a melting point of 273 to 276 °C. For the same compound, the IC50 against EGFRL858R/T790M is over 10 µM. The compound further came in with an IC50 on EGFRwt of over 10 µM. This compound also yielded an IC50 against EGFRL858R of 5.58 ± 4.16 µM.
`O=C(CCl)Nc1ccc2ncc(NC(=O)Nc3ccc(Cl)c(C(F)(F)F)c3)nc2c1` [Compound 7c, 2-chloro-N-(3-(3-(4-chloro-3-(trifluoromethyl)phenyl)ureido)quinoxalin-6-yl)acetamide] showed a melting point of 253 to 255 °C. The same compound had an IC50 at EGFRL858R/T790M of 2.71 ± 0.412 µM. At EGFRwt, this compound gave a 50% inhibitory concentration (IC50) of over 10 µM. This compound came in with an IC50 on EGFRL858R of 3.24 ± 1.26 µM.
Regarding `CN(C)C/C=C/C(=O)Nc1ccc2ncc(NC(=O)Nc3ccccc3)nc2c1` [Compound 7l, (E)-4-(dimethylamino)-N-(3-(3-phenylureido)quinoxalin-6-yl)but-2-enamide], the IC50 against EGFRL858R/T790M worked out at 0.132 ± 0.049 µM; against EGFRwt it was 0.101 ± 0.012 µM; against EGFRL858R, 0.032 ± 0.014 µM. Besides, the “tumor cell lines' growth inhibition / cytotoxic activity (in words)” value in series [1] is reported as “did not inhibit the Oncotest® tumor cell lines’ growth in a significant manner”.
As for `N#CCC(=O)Nc1ccc2ncc(NC(=O)Nc3ccccc3)nc2c1` [Compound 7k, 2-cyano-N-(3-(3-phenylureido)quinoxalin-6-yl)acetamide], the melting point fell in the range of 238 to 241 °C. Besides, half-maximal inhibition at EGFRL858R/T790M (IC50) was put at 6.29 ± 2.79 µM. Besides, the half-inhibitory concentration (IC50) against EGFRwt came to 3.12 ± 0.787 µM. In addition, inhibition on EGFRL858R was half-maximal at 0.445 ± 0.105 µM (IC50).
Turning to `C=CC(=O)Nc1ccc2ncc(NC(=O)Nc3cccc(C(F)(F)F)c3)nc2c1` [Compound 7f, N-(3-(3-(3-(trifluoromethyl)phenyl)ureido)quinoxalin-6-yl)acrylamide], the melting point is 268 to 271 °C. For the same compound, at EGFRL858R/T790M, the IC50 is over 10 µM and the “inhibitory activity on EGFRL858R/T790M (in words)” value is given as “no inhibitory activity”. Besides, on EGFRwt, the IC50 turned out to be 2.5 ± 0.735 µM and the “inhibitory activity on EGFRwt (in words)” value is reported as “weak activity”. In addition, on EGFRL858R, inhibition was half-maximal at 2.16 ± 1.62 µM (IC50) and the “inhibitory activity on EGFRL858R (in words)” value is recorded as “weak activity”.
Take `C/C=C/C(=O)Nc1ccc2ncc(NC(=O)Nc3ccc(Cl)c(C(F)(F)F)c3)nc2c1` [Compound 7b, (E)-N-(3-(3-(4-chloro-3-(trifluoromethyl)phenyl)ureido)quinoxalin-6-yl)but-2-enamide]: the melting point was 277 to 280 °C. On EGFRL858R/T790M, the IC50 was over 10 µM. Moreover, at EGFRwt, the IC50 is over 10 µM. Moreover, the IC50 against EGFRL858R is over 10 µM.
Take `CN(C)C/C=C/C(=O)Nc1ccc2ncc(NC(=O)Nc3ccc(Cl)c(C(F)(F)F)c3)nc2c1` [Compound 7e, (E)-N-(3-(3-(4-chloro-3-(trifluoromethyl)phenyl)ureido)quinoxalin-6-yl)-4-(dimethylamino)but-2-enamide]: the melting point is 217 to 220 °C. This compound yielded a half-maximal inhibitory concentration (IC50) against EGFRL858R/T790M of 6.14 ± 3.47 µM. Moreover, the 50% inhibitory concentration (IC50) against EGFRwt was over 10 µM. Besides, the IC50 against EGFRL858R is over 10 µM.
In turn, `C=CC(=O)Nc1ccc2ncc(NC(=O)Nc3ccc(Cl)c(C(F)(F)F)c3)nc2c1` [Compound 7a, N-(3-(3-(4-chloro-3-(trifluoromethyl)phenyl)ureido)quinoxalin-6-yl) acrylamide] registered a melting point of 272 to 274 °C. In addition, at EGFRL858R/T790M, the IC50 is over 10 µM. The compound further returned an IC50 at EGFRwt of over 10 µM. The IC50 against EGFRL858R was over 10 µM.
With `C=CC(=O)Nc1ccc2ncc(NC(=O)Nc3ccc(F)c(Cl)c3)nc2c1` [Compound 7m, N-(3-(3-(3-chloro-4-fluorophenyl)ureido)quinoxalin-6-yl) acrylamide], the melting point lay in the range of 259 to 262 °C. On EGFRL858R/T790M, this compound gave an IC50 of over 10 µM. For the same compound, the IC50 against EGFRwt is over 10 µM. This compound yielded an IC50 on EGFRL858R of over 10 µM.
`N#CCC(=O)Nc1ccc2ncc(NC(=O)Nc3ccc(Cl)c(C(F)(F)F)c3)nc2c1` [Compound 7d, N-(3-(3-(4-chloro-3-(trifluoromethyl)phenyl)ureido)quinoxalin-6-yl)-2-cyanoacetamide]: the melting point lay in the range of 243 to 246 °C. This compound also had an IC50 against EGFRL858R/T790M of 9.87 ± 0.265 µM. Moreover, the IC50 at EGFRwt was over 10 µM. This compound returned an IC50 on EGFRL858R of over 10 µM.
On to `O=C(CCl)Nc1ccc2ncc(NC(=O)Nc3cccc(C(F)(F)F)c3)nc2c1` [Compound 7g, 2-chloro-N-(3-(3-(3-(trifluoromethyl)phenyl)ureido)quinoxalin-6-yl)acetamide], for which the melting point fell in the range of 260 to 263 °C. At EGFRL858R/T790M, the IC50 came to 9.83 ± 0.297 µM and the “inhibitory activity on EGFRL858R/T790M (in words)” value is recorded as “no inhibitory activity”. For the same compound, at EGFRwt, inhibition was half-maximal at 0.179 ± 0.061 µM (IC50) and the “inhibitory activity on EGFRwt (in words)” value is “weak activity”. In addition, at EGFRL858R, 2.1 ± 0.505 µM corresponded to half-maximal inhibition (IC50) and the “inhibitory activity on EGFRL858R (in words)” value was “weak activity”.
On to `O=C(CCl)Nc1ccc2ncc(NC(=O)Nc3ccccc3)nc2c1` [Compound 7j, 2-chloro-N-(3-(3-phenylureido)quinoxalin-6-yl)acetamide], for which the melting point is 249 to 252 °C. The IC50 on EGFRL858R/T790M amounted to 0.823 ± 0.613 µM. On EGFRwt, this compound yielded a 50% inhibitory concentration (IC50) of 0.123 ± 0.134 µM. The same compound yielded an IC50 at EGFRL858R of 0.27 ± 0.202 µM.
